Reference: PubChem BioAssay (NCI)
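Cultured in 96-well plates, cells were exposed to test compound for 48 hours across five concentrations. TGI marks complete inhibition of growth.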

Assays:
Test in all cases: NCI anticancer screen, dose series, 48 h
NCI-H460 lung = test system: NCI-H460 lung
RXF 393 renal = test system: RXF 393 renal
LOX IMVI melanoma = test system: LOX IMVI melanoma
SF-295 CNS = test system: SF-295 CNS
MALME-3M melanoma = test system: MALME-3M melanoma
HCT-15 colon = test system: HCT-15 colon
UO-31 renal = test system: UO-31 renal
ACHN renal = test system: ACHN renal
SF-539 CNS = test system: SF-539 CNS
HL-60(TB) leukemia = test system: HL-60(TB) leukemia
OVCAR-5 ovarian = test system: OVCAR-5 ovarian
MDA-N = test system: MDA-N
SNB-75 CNS = test system: SNB-75 CNS
UACC-62 melanoma = test system: UACC-62 melanoma
NCI/ADR-RES ovarian = test system: NCI/ADR-RES ovarian
M14 melanoma = test system: M14 melanoma
SW-620 colon = test system: SW-620 colon
A549 NSCLC = test system: A549 NSCLC
COLO 205 colon = test system: COLO 205 colon

Compound	TGI (NCI-H460 lung)	TGI (RXF 393 renal)	TGI (LOX IMVI melanoma)	TGI (SF-295 CNS)	TGI (MALME-3M melanoma)	TGI (HCT-15 colon)	TGI (UO-31 renal)	TGI (ACHN renal)	TGI (SF-539 CNS)	TGI (HL-60(TB) leukemia)	TGI (OVCAR-5 ovarian)	TGI (MDA-N)	TGI (SNB-75 CNS)	TGI (UACC-62 melanoma)	TGI (NCI/ADR-RES ovarian)	TGI (M14 melanoma)	TGI (SW-620 colon)	TGI (A549 NSCLC)	TGI (COLO 205 colon)
N#CCOc1ccc(/C=C/C(=O)c2ccc(Cl)cc2)cc1	64.2 µM	38.5 µM	37.5 µM	53.9 µM	58.4 µM	> 100 µM	88.6 µM	> 100 µM	36.4 µM	> 100 µM	> 100 µM	> 100 µM	37.2 µM	41.6 µM	48.5 µM	> 100 µM	70.4 µM	> 100 µM	–
COc1ccc(-c2nnc3n(Cc4ccccc4)c4ccccc4n3c2=O)cc1	> 100 µM	61.8 µM	> 100 µM	41.8 µM	> 100 µM	> 100 µM	> 100 µM	99.5 µM	34.3 µM	> 100 µM	> 100 µM	> 100 µM	41.8 µM	–	> 100 µM	> 100 µM	> 100 µM	> 100 µM	> 100 µM
O=[N+]1ON=C(c2ccccc2)C1=C1C(c2c(-c3ccccc3)no[n+]2[O-])=NON1[O-]	68.7 µM	10.1 µM	8.67 µM	> 100 µM	51.3 µM	–	48.6 µM	27.4 µM	73.4 µM	7.52 µM	> 100 µM	10.5 µM	33.2 µM	51.2 µM	> 100 µM	> 100 µM	> 100 µM	> 100 µM	25.4 µM
CN(C)c1ccc(-c2c(C#N)c(O)n(NS(=O)(=O)c3ccccc3)c(=O)c2C#N)cc1	> 100 µM	> 100 µM	> 100 µM	–	> 100 µM	> 100 µM	–	> 100 µM	> 100 µM	> 100 µM	> 100 µM	> 100 µM	> 100 µM	> 100 µM	> 100 µM	> 100 µM	> 100 µM	> 100 µM	> 100 µM
Cn1cc(S(=O)(=O)NC(=O)Nc2ccc(Cl)cc2)c2ccccc21	> 100 µM	> 100 µM	> 100 µM	> 100 µM	> 100 µM	20.7 µM	> 100 µM	> 100 µM	> 100 µM	> 100 µM	> 100 µM	> 100 µM	> 100 µM	79.9 µM	> 100 µM	> 100 µM	> 100 µM	> 100 µM	> 100 µM
COc1cccc(C2ON=C(c3ccccc3)N2C23CC4CC(CC(C4)C2)C3)c1 (centres undefined)	> 10 µM	> 10 µM	> 10 µM	> 10 µM	> 10 µM	> 10 µM	–	> 10 µM	> 10 µM	> 10 µM	> 10 µM	> 10 µM	> 10 µM	> 10 µM	> 10 µM	> 10 µM	> 10 µM	> 10 µM	> 10 µM
C=CCc1cc(C=C(C#N)C#N)cc(OC)c1O	> 100 µM	> 100 µM	> 100 µM	> 100 µM	> 100 µM	> 100 µM	> 100 µM	> 100 µM	> 100 µM	89.1 µM	> 100 µM	> 100 µM	> 100 µM	> 100 µM	> 100 µM	> 100 µM	> 100 µM	> 100 µM	> 100 µM
Cc1nc2c(cc1C(=O)N/N=C/c1ccc([N+](=O)[O-])cc1)c(=O)n(C)c(=O)n2C	> 100 µM	65 µM	–	> 100 µM	> 100 µM	> 100 µM	> 100 µM	> 100 µM	–	> 100 µM	> 100 µM	> 100 µM	> 100 µM	> 100 µM	> 100 µM	> 100 µM	> 100 µM	> 100 µM	> 100 µM
c1cc2nnc1SCCCSc1ccc(nn1)SCCCSc1ccc(nn1)SCCCS2	> 100 µM	> 100 µM	> 100 µM	> 100 µM	> 100 µM	> 100 µM	> 100 µM	> 100 µM	> 100 µM	> 100 µM	> 100 µM	> 100 µM	83.4 µM	> 100 µM	> 100 µM	> 100 µM	> 100 µM	> 100 µM	> 100 µM
CC(C)COC(=O)OC(=O)c1ccc(N(C)Cc2cnc3nc(N)nc(N)c3n2)cc1	> 100 µM	> 100 µM	> 100 µM	> 100 µM	> 100 µM	> 100 µM	> 100 µM	> 79.4 µM	> 51.8 µM	> 100 µM	> 100 µM	> 100 µM	> 100 µM	> 100 µM	> 100 µM	> 100 µM	> 100 µM	> 100 µM	> 100 µM
CC1CCCCN1CC(=O)c1ccc2c(c1)Sc1ccccc1O2 (centres undefined)	29.7 µM	31.1 µM	38.7 µM	33 µM	26.8 µM	45.2 µM	25.7 µM	28.8 µM	34 µM	47 µM	34.5 µM	32.2 µM	22.9 µM	30.1 µM	35.5 µM	38.3 µM	42.4 µM	30.7 µM	> 100 µM
CCOC(=O)C(=[N+]=[N-])C(=O)CN1C(=O)C2CC(C)=C(C)CC2C1O (centres undefined)	> 100 µM	> 100 µM	> 100 µM	> 100 µM	> 100 µM	–	> 100 µM	> 100 µM	> 100 µM	> 100 µM	> 100 µM	> 100 µM	> 100 µM	> 100 µM	> 100 µM	> 100 µM	> 100 µM	> 100 µM	> 100 µM
O=C1CCCC(=O)N1n1c(Cc2ccccc2)n[nH]c1=O	–	> 100 µM	> 100 µM	> 100 µM	> 100 µM	> 100 µM	> 100 µM	> 100 µM	–	> 100 µM	> 100 µM	> 100 µM	> 100 µM	> 100 µM	> 100 µM	> 100 µM	> 100 µM	> 100 µM	> 100 µM
COc1cccc2c3ccccc3c3nc[nH]c3c12	> 69.2 µM	> 100 µM	> 100 µM	46.4 µM	> 100 µM	97.1 µM	> 100 µM	> 100 µM	52 µM	–	> 100 µM	> 100 µM	> 100 µM	> 100 µM	> 100 µM	> 100 µM	> 71.2 µM	> 100 µM	36.1 µM
O=C(O)CC1NC(/C(=C/c2ccccc2O)NC(=O)c2ccccc2)OC1=O (centres undefined)	> 100 µM	99.2 µM	> 100 µM	> 95.7 µM	> 100 µM	> 100 µM	> 63.6 µM	> 51 µM	66.9 µM	> 100 µM	> 100 µM	> 100 µM	> 63.6 µM	> 100 µM	> 100 µM	> 100 µM	> 100 µM	> 100 µM	> 100 µM
C[N+](C)(C)/N=C/c1ccc(O)c(O)c1	> 100 µM	> 100 µM	> 100 µM	> 100 µM	> 100 µM	> 100 µM	> 100 µM	> 100 µM	> 100 µM	> 100 µM	> 100 µM	> 100 µM	> 100 µM	> 100 µM	> 100 µM	> 100 µM	> 100 µM	> 100 µM	> 100 µM
COc1cc(/C=C/c2nc(N)nnc2C)cc(OC)c1OC	> 58.5 µM	> 64.4 µM	> 35.9 µM	> 72.6 µM	32.8 µM	38.9 µM	> 42 µM	> 56.1 µM	–	8.36 µM	> 58.9 µM	> 100 µM	–	> 50.3 µM	> 90.2 µM	> 56.4 µM	> 100 µM	> 79.4 µM	> 53 µM
CCOC(=O)C1=c2[nH]c3cccc4cccc(c43)n2C(=O)CC1c1ccccc1 (centres undefined)	> 100 µM	> 100 µM	> 100 µM	> 100 µM	> 100 µM	> 100 µM	> 100 µM	> 100 µM	–	> 100 µM	> 100 µM	> 100 µM	> 100 µM	> 100 µM	> 100 µM	> 100 µM	> 100 µM	> 100 µM	> 100 µM
COc1cc2c(cc1OC)CN1CCCc3cc(OC)c(OC)cc3C1C2 (centres undefined)	> 100 µM	94.4 µM	> 100 µM	> 100 µM	> 100 µM	> 100 µM	> 100 µM	> 100 µM	50.1 µM	–	> 100 µM	42.4 µM	52 µM	> 100 µM	> 100 µM	> 100 µM	> 100 µM	> 100 µM	> 100 µM
CC(=O)OC12c3ccccc3-c3ccccc3C1C(C(=O)O)C2(Cl)C(=O)O (centres undefined)	> 10 µM	> 10 µM	> 10 µM	> 10 µM	> 10 µM	> 10 µM	> 10 µM	> 10 µM	> 10 µM	> 10 µM	> 10 µM	> 10 µM	> 10 µM	–	> 10 µM	> 10 µM	> 10 µM	–	> 10 µM
O=C(Nc1nc(C23CC4CC(CC(C4)C2)C3)cs1)c1cc2cc(Cl)ccc2oc1=O	> 100 µM	> 100 µM	> 100 µM	> 100 µM	> 100 µM	> 100 µM	> 100 µM	> 100 µM	> 100 µM	> 100 µM	> 100 µM	> 100 µM	> 100 µM	–	> 100 µM	–	> 100 µM	> 100 µM	> 100 µM
COc1ccc(/C=C/C(=N/NC(=O)N/N=C(/C=C/c2ccc(OC)cc2)C(C)(C)CN2CCCCC2)C(C)(C)CN2CCCCC2)cc1	3.82 µM	2.72 µM	2.82 µM	3.45 µM	3.42 µM	7.06 µM	2.95 µM	3.19 µM	4.11 µM	3.22 µM	8.16 µM	3.06 µM	2.89 µM	–	4.33 µM	3.12 µM	4.48 µM	3.49 µM	3.1 µM
Nn1c(CCCCCCCCc2nnc(COc3ccccc3)n2N)nnc1COc1ccccc1	> 100 µM	> 100 µM	> 100 µM	> 100 µM	> 100 µM	> 100 µM	> 100 µM	> 100 µM	–	> 100 µM	> 100 µM	> 100 µM	> 100 µM	> 100 µM	> 100 µM	> 100 µM	> 100 µM	> 100 µM	> 100 µM
COC1(OC)N=C(N)C2(C#N)C3(C(=O)N(C(C)C)N=C3C)C12C#N (centres undefined)	> 100 µM	> 100 µM	–	> 100 µM	> 100 µM	> 100 µM	> 100 µM	> 100 µM	> 100 µM	> 100 µM	> 100 µM	> 100 µM	> 100 µM	> 100 µM	> 100 µM	> 100 µM	> 100 µM	> 100 µM	> 100 µM
C[n+]1c2ccccc2n2c3ccccc3c(NCCc3ccccn3)c(C#N)c21	3.61 µM	4.62 µM	3.41 µM	15.9 µM	12 µM	17.4 µM	6.51 µM	> 20.1 µM	12.6 µM	7.9 µM	> 21.7 µM	4.87 µM	5.22 µM	–	> 60 µM	6.56 µM	3.24 µM	50.1 µM	5.88 µM
COc1cc(CNC2=NCCC2)cc(OC)c1OC	> 100 µM	> 100 µM	–	> 100 µM	> 100 µM	> 100 µM	> 100 µM	> 100 µM	> 100 µM	> 100 µM	> 100 µM	> 100 µM	> 100 µM	> 100 µM	> 100 µM	> 100 µM	> 100 µM	> 100 µM	> 100 µM
